Measured values reported in patent publication US10201558B2, “Compositions of selenoorganic compounds and methods of use thereof” (Alltech, Inc., priority 2014, dated 2019).
Entries after “also recorded” stand apart in the source; their conditions may differ.

Legend:
[1] = test system: INSR; test: QRT-PCR of INSR mRNA in IMR-32 cells; type: cell-based, human; conditions: 75 ppb and 150 ppb, 24 hours
Procedure: (§1) Human IMR-32 cells were seeded on gelatinized 6-well (6.5×10^5 cells/well) or 24-well (1.3×10^5 cells/well) plates. Cells were treated with control (0 ppb) or various compounds for 6 hours or 24 hours. Total RNA from these cells was isolated using Trizol (Invitrogen) according to the manufacturer's protocol, and then incubated with DNase I to remove any potential contaminated genomic DNA. Then RNA samples were subjected to real-time PCR analysis using the Applied-Bioscience's RT kit and predesigned Taqman probes (Invitrogen), as described previously (Lan et al EMBO J 2003). The mRNA levels of UCP1, UCP2, UCP3, SLC25A27 (UCP4), SLC25A14 (UCP5), PSEN1, Nicastrin, GSK3B, MAPK11-14, PPARG, APOE, RCAN1, RCAN1.1, G6PC, INSR, IGF1R and FOXO4 were measured. Three to six samples were analyzed in each treatment group. Data were normalized by Actin B (ACTB) or Glyceraldehyde Phosphate Dehydrogenase (GAPDH) mRNA levels in each sample and are presented as mean±SEM of 3-6 samples.
To examine whether or not Compound C can regulate INSR/IGF1R signaling in IMR-32 cells, QRT-PCR analysis was performed to measure INSR and IGF1R mRNA levels. […] Mean±SEM, n=4. The * refers to a p value <0.05 when compared to the control group (0 ppb).

[2] = test system: MAPK12; test: QRT-PCR of MAPK12 mRNA in control and FOXO4 KD IMR-32 cells; type: cell-based, human; conditions: 24 hours
Procedure: (§2) IMR-32 cells were cultured on 12-well plates for 24 hours and then incubated with FOXO4 siRNA lentiviruses (SC-29650V, Santa Cruz) or control siRNA lentiviruses (sc-108080, Santa Cruz) in the presence of Polybrene (5 μg/ml, Santa Cruz) for 24 hours according to the manufacturer's protocol. These lentiviral siRNA-transfected cells were amplified in normal media for 3 days and then incubated with puromycin for 9-14 days to obtain the stable Control KD (stably transfected with the control siRNAs) and FOXO4KD (stably transfected with Foxo4 siRNAs) cells. These control and Foxo4 KD cells were subjected to cell survival, mitochondrial potential and RNA analysis.
as §1
(§3) Normal control cells and FOXO4KD cells were incubated with two doses of Compound C for 24 hours, and subjected to QRT-PCR analysis of the MAPK11-14 genes. The relative mRNA expression of all four MAPK genes in normal control IMR-32 cells was assessed. […] Data in Compound C-treated control and FOXO4 KD cells were normalized by their levels in control and FOXO4KD cells, respectively. Mean±SEM of indicated number of samples in the bar graphs. […]

[3] = test system: MAPK14; test: QRT-PCR of MAPK14 mRNA in control and FOXO4 KD IMR-32 cells; type: cell-based, human; conditions: 24 hours
Procedure: as §2, §1, §3

[4] = test system: Insulin Degrading Enzyme (IDE); test: Western blot of insulin degrading enzyme in APP/PS1 mouse brains; type: in vivo; conditions: APP/PS1 mice, Compound C diet vs control diet
Procedure: (§4) Male APPΔNLh/ΔNLh×PS1P246 L/246 L knock-in model mice of Alzheimer's disease (abbreviated APP/PS1) were genotyped using standard primers for human APP (Amyloid Precursor Protein) and human PS1 (PSEN1). These APP/PS1 mice starting at the age of 6 months, were fed either a control diet containing normal levels of selenium (0.3 ppm from plant and inorganic selenium salt sources) or an experimental diet containing Compound C (the control diet to which was added 1 ppm Se from Compound C) for 6 months. […]
(§5) Frozen hemispheres of control- and Compound C-treated APP/PS1 mice were weighed and homogenized in PBS buffer, and then subsequently extracted with RIPA buffer (Sigma) containing complete proteinase and phosphatase inhibitors (Fisher Scientific). Protein levels in the samples were determined by micro-BCA protein analysis according to the manufacturer's protocol. […] Positive signals on the membrane blots were detected using Amersham's enhanced chemiluminescence Western Blotting Prime Detection reagents (GE healthcare Lifescience, Pittsburgh, Pa.). Images of these luminescence signals on the membrane blots were captured using the LI-COR Odyssey Fc Image system (Lincoln, Nebr.). Protein band densities in Western blots were determined using NIH Image J software, and then normalized by Actb levels in each samples to obtain the protein levels.

[5] = test system: phosphorylated-p38; test: Western blot of phosphorylated-p38 in APP/PS1 mouse brains; type: in vivo; conditions: APP/PS1 mice, Compound C diet vs control diet
Procedure: as §4, §5

[6] = test system: Iba-1; test: Western blot of Iba-1 in APP/PS1 mouse brains; type: in vivo; conditions: APP/PS1 mice, Compound C diet vs control diet
Procedure: as §4, §5

[7] = test system: phosphorylated Foxo3 (threonine 32); test: Western blot of phosphorylated Foxo3 in APP/PS1 mouse brains; type: in vivo; conditions: APP/PS1 mouse brain, Compound C diet vs control diet
Procedure: Male APPΔNLh/ΔNLh×PS1P246 L/246 L knock-in model mice of Alzheimer's disease (abbreviated APP/PS1) were genotyped using standard primers for human APP (Amyloid Precursor Protein) and human PS1 (PSEN1).
At 12 months of age, the mice were euthanized and the brains quickly removed, the cerebellum isolated and the hemispheres snap-frozen in liquid nitrogen and then stored at −80° C. for further immunohistochemistry (IHC), protein and RNA analysis. All procedures conducted on these animal studies were pre-approved by the University of Kentucky IACUC committee.
as §5, with “Protein band densities in Western blots were determined using NIH Image J software, and then normalized by Actb levels in each samples to obtain the protein levels.” left out

[8] = test system: Notch signaling molecules; test: Microarray expression profiles of 65 Notch signaling molecules in APP/PS1 mice; type: in vivo, mouse; conditions: microarray heatmap, 5 control and 6 Compound C treated APP/PS1 mice
Procedure: To further investigate potential toxic effects of compound on the Notch signaling, microarray analysis was performed. Expression of Notch signaling molecules in the brains of Compound C-treated APP/PS1 mice was analyzed. […] Brain tissues were collected and subjected to microarray analysis. The transcription profiles of 65 Notch receptor signaling (based GO search) related genes were pulled out from the original microarray datasets, and then subjected to unsupervised hierarchical clustering analysis based on arrays (animals) using GeneSpring 13.0 software (Agilent Technologies, Inc.), to generate the heatmap of these gene expression (see FIG. 19). In the heatmap, gene expression levels (normalized by Actb) were shown in color intensity that reflect the expression changes compared to mean value of each gene, where blue, red or yellow colors represent decreased, increased or no change in the level of expression intensity, respectively. The dendogram on the top reflects the extent of similarity of expression profiles between animals.

[9] = FOXO4KD cells, 75 ppb and 150 ppb

## C[Se]C[C@H]1O[C@@H](n2cnc3c(N)ncnc32)C(O)C1O (stereo in doubt) [Compound C, 5′-deoxy-5′-methylselenoadenosine]
[1]
  INSR mRNA expression levels: downregulated
[2]; [9]
  MAPK12 mRNA levels: none of the mRNA levels of the four MAPK genes in FOXO4KD cells were significantly altered
[2]; control KD cells, 75 ppb
  MAPK12 mRNA levels: significant decrease
[2]; control KD cells, 150 ppb
  MAPK12 mRNA levels: significantly decreased
[3]; [9]
  MAPK14 mRNA levels: none of the mRNA levels of the four MAPK genes in FOXO4KD cells were significantly altered
[3]; control KD cells, 75 ppb
  MAPK14 mRNA levels: trend towards decreased
[3]; control KD cells, 150 ppb
  MAPK14 mRNA levels: significantly decreased
[4]
  IDE protein levels in the brains: increased; also recorded: elevated
[5]
  phosphorylated-p38 protein levels in the brains: reduced; also recorded: decreased
[6]
  Iba-1 protein levels in the brains: reduced; also recorded: decreased
[7]
  phosphorylated Foxo3 at threonine 32 (pFoxo3) protein: inhibition; also recorded: less abundant; also recorded: significant decrease
[8]
  expression levels of Notch 1-4, RBPJ, Hey1, Hes1, Hey2 and other Notch signaling molecules: did not have obvious change
